Assay results taken from ChEMBL document CHEMBL1201862, “PubChem BioAssay data set” (2004).
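Briefly, cells in 96-well plates were exposed to five compound concentrations for 48 h, and endpoints were estimated by linear interpolation. GI50 = concentration required for 50% inhibition of growth.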 Calls of active or inactive are those of the source. No stated cut-off is given here; in the data, active = GI50 up to about 1.1 µM and inactive = higher.

Columns and labels:
Assay in all cases: DTP human tumour cell line panel, 48 h
[1] = tested on: SK-MEL-5
[2] = tested on: NCI-H226
[3] = tested on: OVCAR-3
[4] = tested on: T47D
[5] = tested on: RPMI-8226
[6] = tested on: NCI-H23
[7] = tested on: OVCAR-8
[8] = tested on: COLO 205
[9] = tested on: OVCAR-5
[10] = tested on: OVCAR-4
[11] = tested on: UACC-257
[12] = tested on: KM12
[13] = tested on: SK-MEL-28
[14] = tested on: UO-31
[15] = tested on: SF-295
[16] = tested on: A498
[17] = tested on: 786-0
[18] = tested on: HT-29
[19] = tested on: RXF 393
[20] = tested on: SNB-75

SMILES | GI50 [1] | GI50 [2] | GI50 [3] | GI50 [4] | GI50 [5] | GI50 [6] | GI50 [7] | GI50 [8] | GI50 [9] | GI50 [10] | GI50 [11] | GI50 [12] | GI50 [13] | GI50 [14] | GI50 [15] | GI50 [16] | GI50 [17] | GI50 [18] | GI50 [19] | GI50 [20]
O=C(O)/C(O)=C\C(=O)c1ccc(Br)cc1 | > 100 µM (inactive) | > 100 µM (inactive) | > 100 µM (inactive) | > 100 µM (inactive) | > 100 µM (inactive) | > 100 µM (inactive) | > 100 µM (inactive) | > 100 µM (inactive) | > 100 µM (inactive) | > 100 µM (inactive) | > 100 µM (inactive) | > 100 µM (inactive) | > 100 µM (inactive) | > 100 µM (inactive) | > 100 µM (inactive) | > 100 µM (inactive) | > 100 µM (inactive) | > 100 µM (inactive) | > 100 µM (inactive) | > 100 µM (inactive)
Oc1cccc2ccc(SSc3ccc4cccc(O)c4n3)nc12 | 33.5 µM (inactive) | > 100 µM (inactive) | 16.1 µM (inactive) | 13.2 µM (inactive) | 26.1 µM (inactive) | 16.9 µM (inactive) | 19.1 µM (inactive) | 18.8 µM (inactive) | 19.4 µM (inactive) | 16.1 µM (inactive) | 20.2 µM (inactive) | 13.7 µM (inactive) | 20.7 µM (inactive) | 25.8 µM (inactive) | 16.6 µM (inactive) | 19.2 µM (inactive) | 18.2 µM (inactive) | 18.7 µM (inactive) | 16 µM (inactive) | 14.7 µM (inactive)
Oc1ccc(-c2cc(-c3cc(-c4ccc(O)cc4)no3)on2)cc1 | 36.9 µM (inactive) | > 75.9 µM (inactive) | > 100 µM (inactive) | 33.1 µM (inactive) | 3.52 µM (inactive) | > 100 µM (inactive) | > 100 µM (inactive) | > 100 µM (inactive) | > 53.3 µM (inactive) | > 100 µM (inactive) | 7.64 µM (inactive) | 11.8 µM (inactive) | > 100 µM (inactive) | 10.8 µM (inactive) | 35.1 µM (inactive) | > 100 µM (inactive) | > 100 µM (inactive) | > 100 µM (inactive) | > 100 µM (inactive) | > 52.8 µM (inactive)
Nc1nc(Cl)cc(NCC2(CO)CCC(CCc3ccccc3)C2)n1 (stereo not given) | 0.0665 µM (active) | 16.5 µM (inactive) | 7.45 µM (inactive) | 0.877 µM (active) | 2.86 µM (inactive) | 2.88 µM (inactive) | 14.6 µM (inactive) | 12.8 µM (inactive) | 14.5 µM (inactive) | 11.9 µM (inactive) | 6.22 µM (inactive) | 13.9 µM (inactive) | 19.6 µM (inactive) | 18 µM (inactive) | 0.687 µM (active) | 12.8 µM (inactive) | 15.7 µM (inactive) | 7.94 µM (inactive) | 14.8 µM (inactive) | 20.8 µM (inactive)
O=C(/C=C\Nc1ccccc1O)C(Cl)(Cl)Cl | > 100 µM (inactive) | > 100 µM (inactive) | 17.8 µM (inactive) | 28 µM (inactive) | 25.3 µM (inactive) | 35.7 µM (inactive) | 35.9 µM (inactive) | 48.3 µM (inactive) | 77.4 µM (inactive) | 39.1 µM (inactive) | 33.5 µM (inactive) | 33.7 µM (inactive) | 43.1 µM (inactive) | 25.1 µM (inactive) | 3.87 µM (inactive) | 35.6 µM (inactive) | 22.8 µM (inactive) | 36.1 µM (inactive) | 33.5 µM (inactive) | 30.3 µM (inactive)
